In ChEMBL document CHEMBL2163248, “Classification of inhibitors of hepatic organic anion transporting polypeptides (OATPs): influence of protein expression on drug-drug interactions” (J Med Chem, 2012):

Tests used:
[1] = molecular target: T1, Solute carrier organic anion transporter family member 2B1 (Homo sapiens, UniProt O94956); experiment: Inhibition of human liver OATP2B1 expressed in HEK293 Flp-In cells assessed as reduction in [3H]E3S uptake at 20 uM incubated for 5 mins by scintillation counting; conditions: hek293, 5 min
T1 sequence (O94956 whole entry): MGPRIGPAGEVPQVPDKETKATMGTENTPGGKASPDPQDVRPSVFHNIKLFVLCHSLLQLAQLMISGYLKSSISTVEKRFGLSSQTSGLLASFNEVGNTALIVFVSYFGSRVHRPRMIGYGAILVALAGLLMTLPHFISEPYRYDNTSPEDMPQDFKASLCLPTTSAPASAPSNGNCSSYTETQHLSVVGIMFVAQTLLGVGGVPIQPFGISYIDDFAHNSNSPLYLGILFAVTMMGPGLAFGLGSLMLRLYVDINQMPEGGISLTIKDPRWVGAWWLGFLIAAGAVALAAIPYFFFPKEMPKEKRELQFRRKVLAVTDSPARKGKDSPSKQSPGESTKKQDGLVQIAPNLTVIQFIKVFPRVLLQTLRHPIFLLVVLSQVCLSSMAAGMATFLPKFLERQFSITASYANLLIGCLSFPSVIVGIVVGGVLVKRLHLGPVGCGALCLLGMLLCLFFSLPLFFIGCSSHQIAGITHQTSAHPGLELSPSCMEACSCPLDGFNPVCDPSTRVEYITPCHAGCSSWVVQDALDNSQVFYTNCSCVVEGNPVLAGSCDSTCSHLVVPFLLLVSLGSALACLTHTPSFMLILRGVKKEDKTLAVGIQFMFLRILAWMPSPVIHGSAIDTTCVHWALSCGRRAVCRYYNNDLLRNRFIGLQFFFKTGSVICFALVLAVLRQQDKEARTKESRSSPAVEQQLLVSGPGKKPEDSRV

[2] = molecular target: T2, Solute carrier organic anion transporter family member 1B1 (Homo sapiens, UniProt Q9Y6L6); experiment: Inhibition of human liver OATP1B1 expressed in HEK293 Flp-In cells assessed as reduction in E17-betaG uptake at 20 uM by scintillation counting; conditions: hek293, 20 µM
T2 sequence (Q9Y6L6 whole entry): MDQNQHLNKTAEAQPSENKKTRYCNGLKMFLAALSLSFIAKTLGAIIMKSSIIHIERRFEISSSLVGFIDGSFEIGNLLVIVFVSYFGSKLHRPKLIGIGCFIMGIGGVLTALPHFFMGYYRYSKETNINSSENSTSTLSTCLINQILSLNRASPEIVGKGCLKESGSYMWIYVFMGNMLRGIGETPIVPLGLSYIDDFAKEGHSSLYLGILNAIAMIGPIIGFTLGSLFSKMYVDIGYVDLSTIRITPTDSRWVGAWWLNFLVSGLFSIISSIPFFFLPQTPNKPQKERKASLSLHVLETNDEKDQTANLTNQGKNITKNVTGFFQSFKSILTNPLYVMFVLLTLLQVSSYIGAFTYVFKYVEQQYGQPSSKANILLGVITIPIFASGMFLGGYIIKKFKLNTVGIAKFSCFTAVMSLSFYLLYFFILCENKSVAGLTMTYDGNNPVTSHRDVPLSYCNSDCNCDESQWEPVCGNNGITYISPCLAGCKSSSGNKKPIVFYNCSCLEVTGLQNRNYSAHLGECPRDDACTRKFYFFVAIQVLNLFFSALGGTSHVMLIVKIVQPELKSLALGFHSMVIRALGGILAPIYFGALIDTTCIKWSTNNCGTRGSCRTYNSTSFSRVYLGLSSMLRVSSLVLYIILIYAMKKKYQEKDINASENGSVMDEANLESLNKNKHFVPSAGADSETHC

[3] = molecular target: T3, Solute carrier organic anion transporter family member 1B3 (Homo sapiens, UniProt Q9NPD5); experiment: Inhibition of human liver OATP1B3 expressed in HEK293 Flp-In cells assessed as reduction in [3H]E17-betaG uptake at 20 uM incubated for 5 mins by scintillation counting; conditions: hek293, 5 min
T3 sequence (Q9NPD5 whole entry): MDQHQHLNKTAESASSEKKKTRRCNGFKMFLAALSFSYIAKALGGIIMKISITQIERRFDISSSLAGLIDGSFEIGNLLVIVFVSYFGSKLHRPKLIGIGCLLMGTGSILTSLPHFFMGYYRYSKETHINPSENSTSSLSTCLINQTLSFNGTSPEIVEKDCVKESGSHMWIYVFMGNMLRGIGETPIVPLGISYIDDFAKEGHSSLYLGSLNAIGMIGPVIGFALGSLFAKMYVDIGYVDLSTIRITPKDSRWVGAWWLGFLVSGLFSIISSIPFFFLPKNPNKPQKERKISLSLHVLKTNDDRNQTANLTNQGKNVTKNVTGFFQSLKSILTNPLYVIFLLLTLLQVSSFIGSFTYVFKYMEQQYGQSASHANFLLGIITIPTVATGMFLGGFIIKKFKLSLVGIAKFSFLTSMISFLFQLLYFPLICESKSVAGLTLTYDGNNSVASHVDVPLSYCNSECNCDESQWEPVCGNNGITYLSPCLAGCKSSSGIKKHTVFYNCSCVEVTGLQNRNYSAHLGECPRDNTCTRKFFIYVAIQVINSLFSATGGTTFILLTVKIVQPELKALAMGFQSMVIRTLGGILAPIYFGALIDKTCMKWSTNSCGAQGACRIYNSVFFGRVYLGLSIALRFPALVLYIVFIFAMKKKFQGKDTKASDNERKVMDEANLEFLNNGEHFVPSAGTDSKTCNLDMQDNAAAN

Structure (SMILES) | INH [1] [%] | INH [2] [%] | INH [3] [%]
COC(=O)N[C@H](C(=O)N[C@@H](Cc1ccccc1)[C@@H](O)CN(Cc1ccc(-c2ccccn2)cc1)NC(=O)[C@@H](NC(=O)OC)C(C)(C)C)C(C)(C)C [ATAZANAVIR] | 90.1 | 95 | 92.6
CNCC[C@@H](Oc1ccccc1C)c1ccccc1 [ATOMOXETINE] | 16.3 | -7.5 | 31.6
O=C(O)[C@H]1O[C@@H](Oc2cc3oc(-c4ccccc4)cc(=O)c3c(O)c2O)[C@H](O)[C@@H](O)[C@@H]1O [BAICALIN] | 59.1 | 27.6 | 20.9
CCc1oc2ccccc2c1C(=O)c1cc(Br)c(O)c(Br)c1 [BENZBROMARONE] | 76.3 | 86.6 | 19.5
COc1ccc2cc3[n+](cc2c1OC)CCc1cc2c(cc1-3)OCO2 [BERBERINE] | 18.5 | 32 | 19.4
CCCC1O[C@@H]2C[C@H]3[C@@H]4CCC5=CC(=O)C=C[C@]5(C)[C@H]4[C@@H](O)C[C@]3(C)[C@]2(C(=O)CO)O1 (stereo partly drawn) [BUDESONIDE] | 30.3 | 73.2 | 79
CCc1cccc2cc(C(O)CNC(C)(C)C)oc12 (stereo not drawn) [BUFURALOL] | -7 | -13.9 | 23.8
CC(NC(C)(C)C)C(=O)c1cccc(Cl)c1 (stereo not drawn) [BUPROPION] | 17 | 8.5 | 7.2
O=C1CC2(CCCC2)CC(=O)N1CCCCN1CCN(c2ncccn2)CC1 [BUSPIRONE] | -13.9 | 33.3 | -5.6
Cn1c(=O)c2c(ncn2C)n(C)c1=O [CAFFEINE] | 3.2 | -1.8 | 22.1
C[C@H](CS)C(=O)N1CCC[C@H]1C(=O)O [CAPTOPRIL] | 39.1 | 18.6 | 4
NC(=O)N1c2ccccc2C=Cc2ccccc21 [CARBAMAZEPINE] | 17.3 | 13.3 | 23.2
C[N+](C)(C)CC(O)CC(=O)[O-] (stereo not drawn) [CARNITINE] | 15.5 | 36.6 | -9.3
CC1=C(C(=O)O)N2C(=O)[C@@H](NC(=O)[C@H](N)c3ccc(O)cc3)[C@H]2SC1 [CEFADROXIL] | 3.5 | 9.4 | 21
Cn1nnnc1SCC1=C(C(=O)O)N2C(=O)[C@@H](NC(=O)[C@H](O)c3ccccc3)[C@H]2SC1 [CEFAMANDOLE] | 2.7 | 30.2 | 16.5
COCc1c(C(C)C)nc(C(C)C)c(/C=C/[C@@H](O)C[C@@H](O)CC(=O)O)c1-c1ccc(F)cc1 [CERIVASTATIN] | 40.1 | 73.6 | 68.1
CN(C)CCCN1c2ccccc2Sc2ccc(Cl)cc21 [CHLORPROMAZINE] | 4.3 | 27.1 | 22.8
CN(C)CC/C=C1/c2ccccc2Sc2ccc(Cl)cc21 [CHLORPROTHIXENE] | 26.6 | 24 | -6.9

Structure (SMILES) | INH [1] [%] | INH [2] [%] | INH [3] [%]
C[C@H](CCC(=O)O)[C@H]1CC[C@H]2[C@@H]3[C@H](O)C[C@@H]4C[C@H](O)CC[C@]4(C)[C@H]3C[C@H](O)[C@]12C [CHOLIC ACID] | 20.2 | 41.6 | 40.8
CN/C(=N/CCSCc1nc[nH]c1C)NC#N [CIMETIDINE] | -6.2 | 40.3 | 24.8
Clc1ccccc1C(c1ccccc1)(c1ccccc1)n1ccnc1 [CLOTRIMAZOLE] | -37.1 | 32.3 | -120.4
COc1cc2c(c(OC)c1OC)-c1ccc(OC)c(=O)cc1[C@@H](NC(C)=O)CC2 [COLCHICINE] | 24.4 | 45.2 | -3.9
O=c1ccc2ccccc2o1 [COUMARIN] | 9.3 | 7.6 | 38.2
O=c1oc2cc(O)ccc2c2oc3cc(O)ccc3c12 [COUMESTROL] | -41.5 | 73.2 | -21.1
O=c1c(-c2ccc(O)cc2)coc2cc(O)ccc12 [DAIDZEIN] | 32 | 35 | 0.7
C[C@@H]1C[C@H]2[C@@H]3CCC4=CC(=O)C=C[C@]4(C)[C@@]3(F)[C@@H](O)C[C@]2(C)[C@@]1(O)C(=O)CO [DEXAMETHASONE] | -12.5 | 10.7 | 34.2
COc1ccc2c(c1)[C@]13CCCC[C@@H]1[C@H](C2)N(C)CC3 [DEXTROMETHORPHAN] | 15.9 | 36.3 | -21.9
CC/C(=C(/CC)c1ccc(O)cc1)c1ccc(O)cc1 [DIETHYLSTILBESTROL] | 68.1 | 62.1 | 31.1
COc1ccc([C@@H]2Sc3ccccc3N(CCN(C)C)C(=O)[C@@H]2OC(C)=O)cc1 [DILTIAZEM] | -9.1 | 3.2 | 4.1
CC(C)N(CCC(C(N)=O)(c1ccccc1)c1ccccn1)C(C)C (stereo not drawn) [DISOPYRAMIDE] | 18.5 | 47.5 | 8.6
COc1cc2nc(N3CCN(C(=O)C4COc5ccccc5O4)CC3)nc(N)c2cc1OC (stereo not drawn) [DOXAZOSIN] | 45.8 | 28.8 | -17.3
O=C1Nc2ccc(Cl)cc2[C@@](C#CC2CC2)(C(F)(F)F)O1 [EFAVIRENZ] | 43.2 | 40.9 | 18.2
CC[C@H]1OC(=O)[C@H](C)[C@@H](O[C@H]2C[C@@](C)(OC)[C@@H](O)[C@H](C)O2)[C@H](C)[C@@H](O[C@@H]2O[C@H](C)C[C@H](N(C)C)[C@H]2O)[C@](C)(O)C[C@@H](C)C(=O)[C@H](C)[C@@H](O)[C@]1(C)O [ERYTHROMYCIN] | -19 | 58.8 | 45.8
C[C@]12CC[C@@H]3c4ccc(O)cc4CC[C@H]3[C@@H]1CC[C@@H]2O [ESTRADIOL] | 47.4 | 102.8 | 39.3
C[C@]12CC[C@@H]3c4ccc(OS(=O)(=O)O)cc4CC[C@H]3[C@@H]1CCC2=O [ESTRONE SULFURIC ACID] | 20.8 | 98.1 | 10.1
O=C1[C@H](CC[C@H](O)c2ccc(F)cc2)[C@@H](c2ccc(O)cc2)N1c1ccc(F)cc1 [EZETIMIBE] | -8.9 | 55.5 | 1.5
